Results taken from patent US7754738B2, “Pyrazole and pyrrole carboxamide insecticides” (E.I. du Pont de Nemours and Company, priority 2002, dated 2010).

Test system: beet armyworm (Spodoptera exigua)
Experiment: Test D: control of beet armyworm on corn plant, foliar spray
Type: in vivo
Conditions: sprayed at 50 ppm, 1-day-old larvae, 6 days, visual rating
Method: Test compounds were formulated using a solution containing 10% acetone, 90% water and 300 ppm X-77® Spreader Lo-Foam Formula non-ionic surfactant containing alkylarylpolyoxyethylene, free fatty acids, glycols and isopropanol (Loveland Industries, Inc., Greely, Colo. USA), unless otherwise indicated. The formulated compounds were applied in 1 mL of liquid through a SUJ2 atomizer nozzle with ⅛ JJ custom body (Spraying Systems Co. Wheaton, Ill., USA) positioned 1.27 cm (0.5 inches) above the top of each test unit. All experimental compounds in these tests were sprayed at 250 ppm (or lower) and replicated three times. After spraying of the formulated test compound, each test unit was allowed to dry for 1 hour and then a black, screened cap was placed on top. The test units were held for 6 days in a growth chamber at 25° C. and 70% relative humidity. Plant feeding damage was then visually assessed based on foliage consumed.
For evaluating control of beet armyworm (Spodoptera exigua) the test unit consisted of a small open container with a 4-5-day-old corn plant inside. This was pre-infested (using a core sampler) with 10-15 1-day-old larvae on a piece of insect diet.
Test compounds were formulated and sprayed at 250 ppm (or lower) as described for Test A. The applications were replicated three times. […]

O=C(Nc1c(F)cc(F)cc1Br)c1cc(Br)nn1-c1ncccc1Cl [Compound 7, N-(2-bromo-4,6-difluorophenyl)-1-(3-chloro-2-pyridinyl)-3-bromo-1H-pyrazole-5-carboxamide]
feeding damage (plant protection): ≤ 20%
